According to the NIST ThermoML archive (doi:10.1016/j.jct.2009.06.010):

Experiments:
[1] = mn = molality of the nth substance listed, in mol/kg; conditions: 298.15 K, 101 kPa, Liquid; for viscosity: Capillary tube (Ostwald / Ubbelohde) method; for mass density: Vibrating tube method
[2] = cn = amount concentration of the nth substance listed, in mol/dm3; conditions: 298.15 K, 101 kPa, Liquid

NCC(=O)N[C@@H](CCC(N)=O)C(=O)O [glycyl-l-glutamine] + O
[1]
Conditions	mass density [kg/m3]	viscosity [mPa·s]
m1 = 0.03879	1000.01	–
m1 = 0.05	–	0.913
m1 = 0.06116	1001.7	–
m1 = 0.08141	1003.22	–
m1 = 0.1	–	0.936
m1 = 0.1008	1004.66	–
m1 = 0.1497	1008.28	–
m1 = 0.15	–	0.961
m1 = 0.1987	1011.85	–
m1 = 0.2	–	0.985
m1 = 0.2522	1015.68	–

CCCC(=O)[O-].[Na+] [sodium butyrate] + O
[2]
Conditions	molar conductivity [S·m2/mol]
c1 = 0.0003234	0.00796
c1 = 0.001116	0.00795
c1 = 0.001273	0.007936
c1 = 0.001488	0.007915
c1 = 0.00188	0.00788
c1 = 0.00243	0.007842
c1 = 0.002454	0.00787
c1 = 0.003167	0.00766
c1 = 0.006298	0.007526
c1 = 0.008849	0.007443
c1 = 0.01124	0.00737
c1 = 0.01353	0.007315
c1 = 0.0155	0.00727
c1 = 0.01721	0.007239
c1 = 0.01916	0.007203
c1 = 0.02091	0.00717
c1 = 0.02284	0.007137
c1 = 0.02481	0.0071
c1 = 0.02647	0.00707

C[C@H](N)C(=O)N[C@@H](CCC(N)=O)C(=O)O [L-alanyl-L-glutamine] + O
[1]
Conditions	mass density [kg/m3]	viscosity [mPa·s]
m1 = 0.0401	999.957	–
m1 = 0.05	–	0.918
m1 = 0.08086	1002.88	–
m1 = 0.1	–	0.948
m1 = 0.1012	1004.32	–
m1 = 0.148	1007.6	–
m1 = 0.15	–	0.978
m1 = 0.2	–	1.008
m1 = 0.2002	1011.17	–
m1 = 0.2448	1014.22	–
m1 = 0.2993	1017.77	–

CC(=O)[O-].[Na+] [sodium ethanoate] + O
[2]
Conditions	molar conductivity [S·m2/mol]
c1 = 0.0002726	0.0088
c1 = 0.0004823	0.008807
c1 = 0.0007722	0.008806
c1 = 0.0009672	0.00879
c1 = 0.001191	0.00877
c1 = 0.001382	0.00872
c1 = 0.001567	0.008739
c1 = 0.001787	0.00872
c1 = 0.002055	0.008701
c1 = 0.002254	0.00869
c1 = 0.002454	0.00867
c1 = 0.003305	0.00849
c1 = 0.00463	0.00842
c1 = 0.006134	0.008351
c1 = 0.007784	0.00829
c1 = 0.008716	0.00826
c1 = 0.01014	0.008207
c1 = 0.01138	0.00817
c1 = 0.01268	0.008135
c1 = 0.01404	0.008103
c1 = 0.01528	0.00808
c1 = 0.01648	0.00806
c1 = 0.01789	0.00802
c1 = 0.01915	0.008
c1 = 0.02025	0.00797
c1 = 0.02164	0.007945
c1 = 0.02337	0.007911
c1 = 0.02523	0.00787
c1 = 0.02696	0.007849
